Experimental data taken from patent US12109179B2, “Pharmaceutical compositions and combinations comprising inhibitors of the androgen receptor and uses thereof” (ESSA Pharma Inc., priority 2019, dated 2024).

How the values were obtained:
[1] = tested on: Androgen-induced PSA-luciferase (LNCaP cells); experiment: Androgen-induced PSA (6.1 kb)-luciferase reporter assay in LNCaP cells; format: cell-based; settings: Homo sapiens, R1881 (1 nM) 24 h
Experimental: To determine the IC50, treatments were normalized to the maximum activity with androgen-induction (in the absence of test compounds, vehicle only) (Table 1).
Luciferase Assay: Lysates were thawed on ice then collected into V-bottom 96-well tissue culture plates. Lysates were centrifuged at 4° C. for 5 minutes at 4000 rpm. To measure luminescence of LNCaP cell lysates the Firefly Luciferase Assay System (Promega) was employed, according to manufacturer's protocol.
Comparisons between treatment and control groups were compared using Two-Way ANOVA with post-hoc Dunnett's and Tukey's tests. Differences were considered statistically significant at P values less than 0.05. Densitometric quantification of relative AR levels was determined by Image.

[2] = tested on: reporter constructs regulated by CMV promoter or AP-1 binding sites; experiment: Control reporter constructs (CMV promoter, AP-1 binding sites); format: cell-based
Excerpt: 2010, and Myung et al., J Clin Invest. 2013.

PSA protein = experiment: Western blot of PSA protein in LNCaP lysates; format: cell-based; settings: ATRA (10 μM), R1881 (1 nM) 24 h
LN95-D3 cells = experiment: Cell cycle analysis of LN95-D3 cells; format: cell-based; settings: 1.5% charcoal-stripped serum
Experimental: Flow cytometry: Fixed cells were probed with anti-BrdU-FITC antibody (BD Biosciences) and stained with 7AAD (Sigma). Data was acquired on a FACSCalibur flow cytometer (BD Biosciences) with CellQUEST Pro and later analyzed using FlowJo V10 software.
After incubating with the compounds, cells were labelled with BrdU for 2 h and then processed for flow cytometry.

[3] = tested on: AR transcriptional activity (PSA (6.1 kb)-luciferase, LNCaP cells); experiment: PSA (6.1 kb)-luciferase assay with Pin1 inhibitors and AR NTD inhibitors (Examples 36-37); format: cell-based; settings: for IC50: Homo sapiens, 24 h
Experimental: Statistical analyses: Statistical significance was determined with GraphPad Prism 8 software using two-way ANOVA with Dunnett's multiple comparisons test unless indicated otherwise; *P<0.05, **P<0.01, ***P<0.001; ns, not significant.
Data shown in Figures are the means±SE from 4 independent experiments.

[4] = tested on: AR-positive breast cancer cell lines; experiment: Cell proliferation (BrdU) and viability (alamarBlue) of breast cancer cell lines; format: cell-based; settings: BrdU 4 days (enzalutamide 10 μM, EPI-002 35 μM); alamarBlue 2 or 3 days
Experimental: Cell Proliferation and Viability Assay: Each breast cancer cell line was plated at 5,000 cells per well in a 96-well plate in culture medium containing 5% or 10% fetal bovine serum. […] For proliferation assay, cells were treated for 4 days and labeled with BrdU for 2 hours. Incorporation of BrdU was measured by enzyme-linked immunosorbent assay (ELISA; Cell Proliferation ELISA, BrdU (colorimetric) from Roche). For cell viability assays, alamarBlue was used for assess cell viability after 2 or 3 days of treatment.
BrdU incorporation was used to assess cell proliferation.
AlamarBlue was used to assess cell viability. Results are presented as mean±SEM (n=3 except n=6 for LNCaP).

C4-2B-MDVR = experiment: Colony formation, C4-2B-MDVR; format: cell-based, human
LN95 cells = experiment: Senescence-associated β-gal staining of LN95 cells; format: cell-based; settings: 1.5% charcoal-stripped serum, 3 days
Experimental: β-galactosidase staining: Cells grown in chamber slides and treated with compounds were fixed at room temperature with 2% formaldehyde/0.2% glutaraldehyde, and then incubated at 37° C. with fresh β-gal staining solution (Cell Signaling) titrated to pH 6.0. Staining was optimal after incubating the slides overnight for 16-18 hours.
Results shown are representative of 3 independent experiments.

LNCaP95 cells = experiment: γH2AX DNA damage in LNCaP95 cells with or without irradiation; format: cell-based; settings: ENZ 5 μM, with or without irradiation (4Gy), 48 h
Experimental: Further, cells were labelled for γH2AX and 7AAD and analyzed by flow cytometry (FIG. 12B). The percentage of cells containing above 10 γH2AX foci (mean±SD from three independent experiments) are represented in FIG. 12C.
Flow Cytometry: Cell cycle analysis was conducted by flow cytometry using BrdU-FITC and 7AAD. DNA damage was analyzed using γH2AX antibody (CST) and 7AAD. Cells were analyzed on FACScalibur flow cytometer.
Immunofluorescence staining: γH2AX antibody (Millipore mouse), Alexa488 anti-mouse antibody were used for staining. Cells were analyzed on Axio observer (×20 magnification) equipped with epitome 2.
Statistical analysis: Graphs represent the means±SEM from three independent experiments performed with three technical replicates. Statistical significance was determined using GraphPad Prism software with a one-way ANOVA; *P<0.05, **P<0.01, ***P<0.001, ****P<0.0001.

[5] = tested on: mCRPC patients with bone metastases; settings: cited from earlier work

SMILES: CC(C)(c1ccc(OCC(=O)CNS(C)(=O)=O)cc1)c1cc(Cl)c(OCCCCl)c(Cl)c1 [AA31, N-(3-(4-(2-(3,5-dichloro-4-(3-chloropropoxy)phenyl)propan-2-yl)phenoxy)-2-oxopropyl)methanesulfonamide]
- IC50 [1]: 0.051 µM

SMILES: CC(C)(c1ccc(OCC(=O)CNS(C)(=O)=O)cc1)c1cc(Cl)c(OCCCl)c(Cl)c1 [AA33]
- IC50 [1]: 0.038 µM

SMILES: CC(O)(CCl)COc1c(Cl)cc(C(C)(C)c2ccc(OCC(=O)CNS(C)(=O)=O)cc2)cc1Cl (stereo not drawn) [AA52]
- IC50 [1]: 0.074 µM

SMILES: COCC(=O)COc1ccc(C(C)(C)c2cc(Cl)c(OCC(O)CCl)c(Cl)c2)cc1 (stereo not drawn) [AA56]
- IC50 [1]: 0.344 µM

SMILES: CC(=O)C(=O)Nc1ccc(C(C)(C)c2cc(Cl)c(OCCCCl)c(Cl)c2)cc1 [AA85]
- IC50 [1]: 0.368 µM

SMILES: CC1=C(/C=C/C(C)=C/C=C/C(C)=C/C(=O)O)C(C)(C)CCC1 [ATRA, all-trans retinoic acid]
- inhibitory effects on CMV promoter or AP-1 reporter constructs [2]: No inhibitory effects
- androgen-induced expression of PSA protein (PSA protein): decreased
- cell cycle effect (LN95-D3 cells): arrested cells in G1 and decreased the S phase population in a dose-dependent manner

SMILES: CC(C)(c1ccc(OC[C@H](O)CO)cc1)c1cc(Cl)c(OC[C@H](O)CCl)c(Cl)c1 [Compound 1a]
- IC50 [1]: 1.41 µM

SMILES: COC[C@@H](O)COc1ccc(C(C)(C)c2cc(Cl)c(OC[C@H](O)CCl)c(Cl)c2)cc1 [Compound 5a]
- IC50 [1]: 1.03 µM

SMILES: CC(C)(c1ccc(OC[C@H](O)Cn2ccnc2)cc1)c1cc(Cl)c(OC[C@H](O)CCl)c(Cl)c1 [Compound 9a]
- IC50 [1]: 3.12 µM

SMILES: CC(C)(c1ccc(OC[C@H](O)CN2CCOCC2)cc1)c1cc(Cl)c(OC[C@H](O)CCl)c(Cl)c1 [Compound 11a]
- IC50 [1]: 1.05 µM

SMILES: CC(C)(c1ccc(OC[C@H](O)CN)cc1)c1cc(Cl)c(OC[C@H](O)CCl)c(Cl)c1 [Compound 12a, (R)-1-amino-3-(4-(2-(3,5-dichloro-4-((S)-3-chloro-2-hydroxypropoxy)phenyl)propan-2-yl)phenoxy)propan-2-ol]
- IC50 [1]: 2.26 µM

SMILES: CC1=C(/C=C/C(C)=C/C=C/C(C)=C\C(=O)O)C(C)(C)CCC1 [Compound 13CisRA]
- inhibitory effects on CMV promoter or AP-1 reporter constructs [2]: No inhibitory effects

SMILES: CC(C)(c1ccc(OC[C@H](O)CNS(C)(=O)=O)cc1)c1cc(Cl)c(OC[C@H](O)CCl)c(Cl)c1 [Compound 13a]
- IC50 [1]: 1.05 µM
- IC50 [3]: 0.74 ± 1.2 µM

SMILES: CCS(=O)(=O)C[C@@H](O)COc1ccc(C(C)(C)c2cc(Cl)c(OC[C@H](O)CCl)c(Cl)c2)cc1 [Compound 14a]
- IC50 [1]: 0.95 µM

SMILES: CC(C)(c1ccc(OC[C@H](O)CO)cc1)c1ccc(OC[C@H](O)CCl)cc1 [EPI-002]
- IC50 [3]: 7.9 ± 1.2 µM
- decrease in IC50 values in the presence of ATRA ([3]; PSA (6.1 kb)-luciferase): 2 fold
- effect of combination with ATRA on inhibiting AR transcriptional activity ([3]; PSA (6.1 kb)-luciferase, R1881 (1 nM)): synergistic effect
- cell proliferation and viability [4]: significantly inhibited
- colony formation, combination with Enzalutamide (C4-2B-MDVR): reduced colony formation
- combination with ATRA: G1 arrest and decrease of S phase population (LN95-D3 cells): synergistic
- percentage of β-gal-positive cells, combination with ATRA (LN95 cells): synergy

SMILES: CNC(=O)c1ccc(N2C(=S)N(c3ccc(C#N)c(C(F)(F)F)c3)C(=O)C2(C)C)cc1F [Enzalutamide, enzalutamide]
- percentage of cells containing above 10 γH2AX foci (LNCaP95 cells): no effect
- combination with ATRA: G1 arrest and decrease of S phase population (LN95-D3 cells): not

SMILES: [Cl][223Ra][Cl] [radium 223 dichloride]
- increase overall survival (OS) [5]: approximately 3 months
